pEC50: −log10 of the molar value.
Legend:
[1] = target: T1, human GPR119 (Homo sapiens, UniProt Q8TDV5); test: GPR119 agonistic activity: cAMP production in human GPR119-expressed CHO cells (HTRF cAMP kit); format: cell-based; details: human GPR119-expressed CHO cells (L8-18), 37° C. for 30 minutes, 500 μM IBMX
T1 construct: expressed in transfected cells; host or cells: CHO cells (LM-3 mock cells carrying luciferase reporter pLG3-CRE6-CRE-VIP); resulting line L8-18
T1 sequence (Q8TDV5 1-335): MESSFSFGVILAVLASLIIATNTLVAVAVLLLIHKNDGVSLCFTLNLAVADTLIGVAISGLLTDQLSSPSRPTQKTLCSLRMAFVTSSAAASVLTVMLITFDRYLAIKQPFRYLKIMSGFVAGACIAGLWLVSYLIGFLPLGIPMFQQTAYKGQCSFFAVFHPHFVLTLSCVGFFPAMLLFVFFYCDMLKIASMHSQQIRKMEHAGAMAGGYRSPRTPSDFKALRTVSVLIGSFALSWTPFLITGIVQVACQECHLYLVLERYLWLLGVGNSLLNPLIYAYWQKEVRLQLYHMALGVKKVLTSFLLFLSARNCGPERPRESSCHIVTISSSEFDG
Experimental: The present experiment is directed to evaluate GPR119 agonistic activity (in vitro) of test compounds by adding the compounds to human GPR119-expressed CHO cells to determine cAMP production of the cells.
Human GPR119-expressed CHO cells (L8-18) were prepared by introducing an expression vector pMSF1-GPR119 (Geneticin-resistance) carrying human GPR119 genes into CHO cells (LM-3; Mock cells) wherein lusiferase expression vector pLG3-CRE6-CRE-VIP (Hygromycin B-resistance) were introduced according to the known method (The Journal of Biological Chemistry Vol. 274 (34), pp. 23940-23947).
Cryopreserved L8-18 cells were melted, and then suspended into 9-fold amounts of assay buffer and centrifuged (1000 rpm, 5 minutes) at room temperature. The supernatant was removed, and then the precipitated cells were resuspended into assay buffer (4 mL). Thereto was added assay buffer which contained IBMX (manufactured by Sigma, #17018-1G), and 7.5×10^4 cells/mL of cell suspension was prepared. The cell suspension was let stand at room temperature for 15 minutes, and then to each well of 96 half well white plate (manufactured by Corning Incorporated, #3693) were added the cell suspension (20 μL) and a solution of a test compound or AR231453 (5 μL; a total of 25 (final concentration: 1500 cells/well, 500 μM IBMX, 1% dimethylsulfoxide). The mixture was incubated at 37° C. for 30 minutes, and then to each well were added a 20-fold diluted solution (each 12.5 μL/well) of cAMP-d2 and Anti cAMP-Cryptate of HTRF cAMP kit (manufactured by Cisbio, #62AM4PEC). The mixture was stirred, and then was let stand for 1 hour under light shielding. A fluorescence intensity was measured by time-resolved fluorescence mode (Ex: 320 nm, Em: 665 nm, 620 nm) of Microplate Reader (ARVO or SpectraMax M5e). In ARVO, Ratios [Ratio=(665 nm/620 nm)×10^4)] of cAMP-d2 to Anti cAMP-Cryptate were calculated from the resulting fluorescence intensity, and cAMP concentrations of each well were calculated from cAMP standard curve prepared by the Ratios and GraphPad Prism. In SpectraMax M5e, cAMP concentrations of each well were calculated on the basis of a standard curve prepared by the resulting fluorescence intensity and Softmax Pro.
EC50 of test compounds were calculated by GraphPad Prism.

[2] = system: C57BL/6N male mice; test: Inhibitory effect on increased blood glucose after oral glucose load in fasted mice; format: in vivo; details: one hour before glucose load (3 g/kg, p.o.), C57BL/6N male mice fasted 21 hours
Experimental: C57BL/6N male mice was fasted for 21 hours, and then a stratified randomization allocation was carried out by EXSUS Ver7.6 NP (Arm Systex Co., Ltd.) based on body weights (n=8). Vehicle (solvent: 0.1% Tween 80/0.5% hydroxypropyl methylcellulose) (control group) or a suspended solution of a test compound in the vehicle (test compound group) was orally administered to the mice, and a glucose load (3 g/kg, p.o.) was carried out one hour after administration of a test compound. Blood samplings from the test mice were carried out at each time point of just before administration of drug (−60 min), immediately before glucose load (0 min), 30 minutes (30 min), 60 minutes (60 min) and 120 minutes (120 min) after glucose load. Blood glucose levels at each time point were measured by glucose CII-Test Wako (manufactured by Wako Pure Chemical Industries, Ltd.), AUC (0-120 min) was calculated in each administration group on the basis of the measured value, and evaluated by time-dependent variance analysis and Student's t-Test using EXSUS Ver7.6NP (Arm Systex Co., Ltd.).
An inhibitory effect on increased blood glucose of each test compound (A ratio value of AUC (0-120 min) of the test compound group in case that AUC (0-120 min) of the control group is 100) is shown in the following Table 36.

`CCc1cnc(N2CCC(n3cc(F)c4c(Nc5ccc(C(=O)N(C)CCCO)cc5F)ncnc43)CC2)nc1` [Example Compound 63] was tested, and the pEC50 [1] was greater than 6.00 and the “Inhibitory Effect on Increased Blood Glucose (ratio value of AUC (0-120 min) of test compound group, control group = 100)” value ([2]; 10 mg/kg orally) was 89.

In the case of `CC(C)Oc1cnc(N2CCC(n3cc(F)c4c(Nc5ccc(C(=O)N(C)CCO)cc5F)ncnc43)CC2)nc1` [Example Compound 153], the pEC50 [1] was greater than 6.00 and the “Inhibitory Effect on Increased Blood Glucose (ratio value of AUC (0-120 min) of test compound group, control group = 100)” value ([2]; 3 mg/kg orally) was 84.
